This is an account of results in patent US20240239841A1, “PEPTIDE AND METHOD FOR TREATING PAIN USING THE SAME” (PELL BIO-MED TECHNOLOGY CO., LTD., priority 2019, published 2024).

In experiment [1] the test system is C57BL/6JNarl male mice (acetic acid-induced visceral pain). Put plainly: Acetic acid-induced writhing (abdominal constriction) assay. It is filed as in vivo, C57BL/6JNarl mice. The settings on record: oral doses of 1 μg/kg and 10 mg/kg, among 0.1 μg/kg to 10 mg/kg tested; 10 min before 1% acetic acid; FIG. 9. Here is the method:
(§1) For conducting nociceptive pain and acid-induced chronic widespread pain experiments, C57BL/6JNarl male mice (20 to 25 g) were housed in an environment with temperature control (24±0.5° C.) and 12-hour light-dark cycle (lights on during 08:00-20:00) and allowed free access to standard laboratory food and tap water. Animals were allowed to acclimatize for 20 to 30 min prior to experimental manipulations. Animal care and handling procedures were adopted in accordance with the International Association for the Study of Pain guidelines for those animals used in pain research, and the procedures were approved by the Committee for Ethics in Animal Research.
Acid-induced abdominal constriction assay was performed in accordance with H. O. Collier, L. C. Dinneen, C. A. Johnson, C. Schneider, The abdominal constriction response and its suppression by analgesic drugs in the mouse. Br J Pharmacol Chemother 32, 295-310 (1968). In general, the mice from Preparation Example 3 were placed in a small observation chamber and habituated for 20 min. […] The numbers of abdominal constrictions in 30 min after acid injection were counted and the mean constriction numbers of mice of each group were calculated. […]
For orientation: In writhing tests, fewer writhes than in controls are read as antinociception.

Experiment [2] concerns ICR mice with CFA-induced arthritis (bilateral mechanical hyperalgesia). Put plainly: Paw withdrawal threshold (PWT) by von Frey Filament in CFA-induced arthritis mice. The settings on record: for PWT value of ipsilateral hind paw / PWT value of contralateral paw: 90 min after administration; for time of best antinociceptive effect after administration: peptide 3 mg/kg, morphine 10 mg/kg, PWT determined at 0, 30, 60, 90, 120 min.

Experiment [3] concerns TNF-α. As to the kind of experiment: Serum TNF-α by ELISA in CFA-induced arthritis mice after long-term oral administration. It is filed as in vivo, ICR mice. Conditions: 3 mg/kg oral once a week, 4th to 12th week; serum at 12th week; vs water control; FIG. 1. Here is the method: (§2) On the other hand, the mice administered with water were served as the control group, which also comprised 6 mice. The mice in the experimental group and the control group were sacrificed on the 12th week after administration. The serum collection is conducted by cardiac puncture. The Mouse TNF-α Quantikine ELISA Kit (R&D System, MTA00B), Mouse IL-6 Quantikine ELISA Kit (R&D System, M600B) and enzyme-linked immunosorbent assay (ELISA) were used to determine and collect the serum concentration of TNF-α and IL-6 of mice in the experimental group and the control group.
(In general: ELISA stands for enzyme-linked immunosorbent assay.)

Experiment [4] relates to IL-6. As to the kind of experiment: Serum IL-6 by ELISA in CFA-induced arthritis mice after long-term oral administration. It is filed as in vivo, ICR mice. The settings on record: 3 mg/kg oral once a week, 4th to 12th week; serum at 12th week; vs water control; FIG. 2. On the procedure: as §2
The subject of experiment [5] is C57BL/6JNarl male mice (radiant heat tail-flick). Put plainly: Radiant heat tail-flick test. It is filed as in vivo, C57BL/6JNarl mice. Conditions: oral doses of 0.1 μg/kg, 0.3 μg/kg, 0.1 mg/kg, 1 mg/kg, 3 mg/kg and 10 mg/kg, among 0.01 μg/kg to 10 mg/kg tested; latency 10-90 min; FIG. 9. Here is the method:
as §1
The radiant heat tail-flick test was modified in accordance with F. E. D'Amour, D. L. Smith, A method for determining loss of pain sensation. The Journal of Pharmacology and Experimental Therapeutics 72, 74-79 (1941). The 5 to 12 mice from Preparation Example 3 were placed and acclimatized in the restrainers for 30 min prior to the tail-flick test. […] The latency was recorded every 10 min during the indicated time period (10-90 min) after oral administration with different dosages of the peptide of SEQ ID NO: 1 (0.01 μg/kg, 0.03 μg/kg, 0.1 μg/kg, 0.3 μg/kg, 1 μg/kg, 0.01 mg/kg, 0.1 mg/kg, 1 mg/kg, 3 mg/kg, and 10 mg/kg). Then the latency during 10-90 min was calculated. […]
A general note: Thermal pain tests record how soon the animal reacts.

Non-standard residues stand in square brackets, D forms with d. pGlu = O=C1CC[C@@H](C(=O)O)N1

On to “Glp Glu Thr Ala Val Ser Ser His Glu Gln Asp ([pGlu]ETAVSSHEQD-OH; SMILES CC(C)[C@H](NC(=O)[C@H](C)NC(=O)[C@@H](NC(=O)[C@H](CCC(=O)O)NC(=O)[C@@H]1CCC(=O)N1)[C@@H](C)O)C(=O)N[C@@H](CO)C(=O)N[C@@H](CO)C(=O)N[C@@H](Cc1c[nH]cn1)C(=O)N[C@@H](CCC(=O)O)C(=O)N[C@@H](CCC(N)=O)C(=O)N[C@@H](CC(=O)O)C(=O)O) [peptide of SEQ ID NO: 1, synthesized peptide; Glp is pyroglutamic acid]”, for which the “antinociceptive effect in the acid-induced writhing experiment (antinociceptive activity %)” value in experiment [1] is “best antinociceptive effect”. For the same compound, the “PWT value of ipsilateral hind paw” value in experiment [2] (0.3 μg/kg oral, rose from 0.065 g, FIG. 7) was 1 g; in experiment [2] (1 μg/kg oral, rose from 0.065 g, FIG. 7) it was 0.6 g; in experiment [2] (3 μg/kg oral, rose from 0.065 g, FIG. 7), 0.16 g; in experiment [2] (1 mg/kg oral once a week, 4th to 12th week, increased from 0.09 g, FIG. 5), 0.5˜1 g; in experiment [2] (3 mg/kg oral once a week, 4th to 12th week, increased from 0.09 g of 3rd week, FIG. 5) it was 0.63˜1 g; in experiment [2] (peptide 3 mg/kg oral on 4th week, rose from 0.07 g, FIG. 3) it was 0.9 ± 0.156 g. Also, the “PWT value of contralateral paw” value in experiment [2] (0.3 μg/kg oral, rose from 0.32 g, FIG. 8) is 1 g; in experiment [2] (1 μg/kg oral, rose from 0.32 g, FIG. 8) it was 1.4 g; in experiment [2] (3 μg/kg oral, rose from 0.32 g, FIG. 8), 1 g; in experiment [2] (1 mg/kg oral once a week, 4th to 12th week, increased from 0.4 g at 3rd week, FIG. 6), 0.6˜ 1.2 g; in experiment [2] (3 mg/kg oral once a week, 4th to 12th week, increased from 0.4 g, FIG. 6), 0.87˜1.27 g; in experiment [2] (peptide 3 mg/kg oral on 4th week, rose from 0.5±0.047 g, FIG. 4), 1.35 ± 0.193 g. For the same compound, in experiment [2] (oral, long-term administration once a week, 4th to 12th week), the “antinociceptive effects of 1 mg/kg and 3 mg/kg compared (PWT)” value is listed as “similar”. Further, the “time of best antinociceptive effect after administration” value in experiment [2] (oral) is on record as 90 min. The “antinociceptive effect compared with morphine (PWT)” value in experiment [2] (peptide 3 mg/kg oral vs morphine 10 mg/kg oral, lower amount required) is “antinociceptive effect similar to morphine”. For the same compound, in experiment [3], the “serum concentration of TNF-α” value is given as “not detected (ND)”. Besides, the “serum concentration of IL-6” value in experiment [4] was “decreased compared to the control group”. In addition, the “antinociceptive effect in the radiant heat tail-flick test (% MPE)” value in experiment [5] was “best antinociceptive effect”.

On to `CN1CC[C@]23c4c5ccc(O)c4O[C@H]2[C@@H](O)C=C[C@H]3[C@H]1C5` [morphine, reference compound], for which, in experiment [2] (morphine 10 mg/kg oral on 4th week, rose from 0.085±0.015 g, FIG. 3), the “PWT value of ipsilateral hind paw” value turned out to be 0.64 ± 0.089 g. Further, the “PWT value of contralateral paw” value in experiment [2] (morphine 10 mg/kg oral on 4th week, rose from 0.43±0.033 g, FIG. 4) was determined as 1.96 ± 0.488 g. Also, the “time of best antinociceptive effect after administration” value in experiment [2] (oral) is 90 min.
